The values that follow come from ChEMBL document CHEMBL1201862, “PubChem BioAssay data set” (2004).

Test systems include SF-295; IGROV-1; MOLT-4; NCI-H226; KM12; MDA-N; SF-268; COLO 205; SR; DU-145; NCI-H522; A498; CCRF-CEM; SK-OV-3; NCI-H23; HCT-15; SF-539; OVCAR-3; SNB-75; K562.
Assay in all cases: growth of human tumour cells (NCI), 48 h

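Five concentrations, 48 hours, 96-well plates. GI50 is the concentration that inhibits growth by half.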 Activity calls are given as the source filed them. Rule as the data show it: active = GI50 up to about 1.1 µM and inactive = higher.

For `CN(C)c1cccc(-c2cc(=S)c3cc4c(cc3[nH]2)OCO4)c1`, the GI50 was 4.6 µM (inactive) with SF-295; 6.38 µM (inactive) with IGROV-1; 15.8 µM (inactive) with MOLT-4; 5.7 µM (inactive) with NCI-H226; 5.13 µM (inactive) in the test on KM12; 2.83 µM (inactive) in the test on MDA-N. The GI50 was > 61.2 µM (inactive) with SF-268; 14.8 µM (inactive) with COLO 205; 4.95 µM (inactive) in the test with SR; 4.74 µM (inactive) in the test with DU-145; 12.6 µM (inactive) in the test on NCI-H522; > 100 µM (inactive) in the test with A498. In addition, the GI50 in the test on CCRF-CEM is 4.26 µM (inactive); in the test on SK-OV-3, 6.14 µM (inactive); with NCI-H23 it was 5.62 µM (inactive); in the test with HCT-15 it was 4.74 µM; in the test with SF-539, 4.27 µM (inactive); in the test on OVCAR-3, 8.67 µM (inactive).
In the case of `CC(=O)NC(CS/N=N/c1[nH]cnc1C(N)=O)C(=O)O` (stereo not drawn), the GI50 was 4.16 µM (inactive) in the test on SF-295; 5.81 µM (inactive) with IGROV-1; 16.9 µM (inactive) in the test with SNB-75; 3.38 µM (inactive) in the test with MOLT-4; 2.51 µM (inactive) in the test with NCI-H226; 6.71 µM (inactive) in the test on KM12. In addition, the GI50 with MDA-N is 5.05 µM (inactive); in the test on SF-268 it was 4.29 µM (inactive); in the test on COLO 205, 7.24 µM (inactive); in the test on SR, < 0.01 µM (active); with DU-145 it was 1.78 µM (inactive); in the test on NCI-H522, 14.9 µM (inactive). The GI50 in the test on K562 was 0.791 µM (active); in the test with CCRF-CEM, 2.14 µM (inactive); in the test with SK-OV-3, 2.15 µM (inactive); with NCI-H23 it was 38.9 µM (inactive); in the test with HCT-15, 19.5 µM; in the test with SF-539, 7.87 µM (inactive). Moreover, the GI50 in the test with OVCAR-3 was 10 µM (inactive).
`O=c1cc(-c2ccc(O)cc2)n(C2CC2)c2ccccc12`: the GI50 with SF-295 is 3.46 µM (inactive); in the test with IGROV-1, 5.3 µM (inactive); in the test on MOLT-4, 50.9 µM (inactive); in the test on NCI-H226, 2.67 µM (inactive); in the test on KM12, 3.45 µM (inactive); in the test on MDA-N it was 10.6 µM (inactive). In addition, the GI50 in the test on SF-268 was 7.29 µM (inactive); in the test with COLO 205, 2.64 µM (inactive); in the test with SR, 7.43 µM (inactive); in the test on DU-145 it was 3.64 µM (inactive); with NCI-H522, 3.18 µM (inactive); with K562, 7.87 µM (inactive). The GI50 was 7.16 µM (inactive) with CCRF-CEM; 9.08 µM (inactive) with SK-OV-3; 8.73 µM (inactive) in the test on NCI-H23; 4.08 µM in the test with HCT-15; 5.38 µM (inactive) in the test on SF-539; 4.23 µM (inactive) with OVCAR-3.
In the case of `COc1cccc2c1[C@H]1CO[C@H]3C4C[C@H](C(=O)O)C([C@@H](C2)N13)N4C` (stereo partly drawn), the GI50 with SF-295 is 7.1 µM (inactive); in the test with IGROV-1, 4.51 µM (inactive); with SNB-75, 1.48 µM (inactive); in the test on MOLT-4, 1.69 µM (inactive); in the test on NCI-H226 it was 1.29 µM (inactive); in the test on MDA-N, 0.17 µM (active). Further, the GI50 in the test on SF-268 is 1.79 µM (inactive); with COLO 205, 1.6 µM (inactive); with SR, 1.14 µM (inactive); in the test with DU-145, 0.0423 µM (active); with NCI-H522, 0.294 µM (active); with K562, 1.47 µM (inactive). Moreover, the GI50 is 1.79 µM (inactive) in the test with NCI-H23, 1.67 µM with HCT-15, 1.56 µM (inactive) with SF-539 and 1.38 µM (inactive) in the test with OVCAR-3.
Consider `CC(CC(C)(C)[N+](C)(C)C)[N+](C)(C)C` (stereo not drawn), for which the GI50 in the test on SF-295 is > 100 µM (inactive); in the test on IGROV-1, > 100 µM (inactive); in the test with SNB-75, 88.9 µM (inactive); in the test with MOLT-4 it was > 100 µM (inactive); in the test with NCI-H226, > 100 µM (inactive); with KM12, > 100 µM (inactive). Further, the GI50 in the test on MDA-N, with SF-268, in the test on COLO 205, in the test with SR, in the test on DU-145 and in the test on NCI-H522 was > 100 µM (inactive) throughout. The GI50 in the test on K562 is > 100 µM (inactive); with CCRF-CEM, > 100 µM (inactive); with SK-OV-3, > 100 µM (inactive); with NCI-H23, > 100 µM (inactive); in the test on HCT-15, over 100 µM; in the test with SF-539, > 100 µM (inactive). In addition, the GI50 in the test with OVCAR-3 was > 100 µM (inactive).
Turning to `CC(=O)O[C@@H]1CC2[C@@H](CCC3Cc4nc5c(nc4C[C@@]32C)CC2CC[C@@H]3C(CC[C@@]4(C)C3CC[C@@H]4C(C)CCCC(C)C)[C@@]2(C)C5)C2C[C@@H]3OC4(CCC(C)CO4)C(C)[C@@H]3[C@]21C` (stereo partly drawn), the GI50 in the test on SF-295 is 53.8 µM (inactive); in the test on IGROV-1 it was > 100 µM (inactive); with SNB-75, 2.74 µM (inactive); in the test with MOLT-4, > 100 µM (inactive); with NCI-H226 it was 23.4 µM (inactive); with KM12 it was > 100 µM (inactive). For the same molecule, the GI50 is > 100 µM (inactive) in the test with MDA-N; 39.3 µM (inactive) in the test on SF-268; > 100 µM (inactive) in the test with COLO 205; > 100 µM (inactive) in the test with SR; > 100 µM (inactive) in the test on DU-145; > 100 µM (inactive) in the test with NCI-H522. For the same molecule, the GI50 with K562 was > 100 µM (inactive); in the test with CCRF-CEM, > 100 µM (inactive); with SK-OV-3, 3.04 µM (inactive); in the test with NCI-H23, > 100 µM (inactive); with HCT-15, over 100 µM; with SF-539, > 100 µM (inactive). The GI50 with OVCAR-3 is > 100 µM (inactive).
Take `C#C[C@]1(O)[C@@H](CO)O[C@@H](n2ccc(N)nc2=O)[C@@H]1O`: the GI50 in the test on SF-295 was < 0.0334 µM (active); with IGROV-1 it was 0.028 µM (active); in the test with SNB-75, 0.0327 µM (active); in the test with MOLT-4, 0.0101 µM (active); in the test on NCI-H226, 0.0308 µM (active); in the test with KM12, < 0.0127 µM (active). The GI50 was 0.0121 µM (active) in the test with MDA-N; 0.019 µM (active) with SF-268; < 0.0111 µM (active) with COLO 205; < 0.01 µM (active) in the test with SR; < 0.01 µM (active) in the test on DU-145; < 0.01 µM (active) in the test on NCI-H522. The GI50 with K562 is < 0.01 µM (active); in the test with CCRF-CEM it was < 0.0109 µM (active); in the test with SK-OV-3, 0.0791 µM (active); with NCI-H23, 0.0902 µM (active); in the test on HCT-15, under 0.01 µM; in the test with SF-539, 0.111 µM (active). For the same molecule, the GI50 with OVCAR-3 is 0.132 µM (active).
Consider `Cc1cc(C)nc(NS(=O)(=O)c2ccc(NNc3c4ccccc4nc4c(C(=O)Nc5ccc(S(N)(=O)=O)cc5)cccc34)cc2)n1`, for which the GI50 is 54 µM (inactive) with SF-295; 34.6 µM (inactive) in the test on IGROV-1; 18.6 µM (inactive) in the test with SNB-75; 17.1 µM (inactive) with MOLT-4; 32 µM (inactive) with NCI-H226; 34 µM (inactive) with KM12. Also, the GI50 was 49.5 µM (inactive) with MDA-N; 29.9 µM (inactive) with SF-268; > 100 µM (inactive) in the test on COLO 205; 12.8 µM (inactive) in the test on SR; 42.6 µM (inactive) in the test on DU-145; 19.7 µM (inactive) in the test on NCI-H522. In addition, the GI50 in the test on K562 was 27.9 µM (inactive); in the test with CCRF-CEM, 20.2 µM (inactive); in the test with SK-OV-3 it was 47.1 µM (inactive); with NCI-H23, 21.2 µM (inactive); with HCT-15, over 100 µM; with SF-539, 40.7 µM (inactive). Also, in the test with OVCAR-3, the GI50 is 25.9 µM (inactive).
Turning to `C/C=C(/C)C(=O)O[C@@H]1CCN2CC[C@H](COC(=O)/C(=C/C)CO)C12` (stereo partly drawn), the GI50 with SF-295 was > 89.1 µM (inactive); with IGROV-1, > 100 µM (inactive); in the test on SNB-75, > 95.3 µM (inactive); in the test on MOLT-4, 25.9 µM (inactive); in the test on NCI-H226, > 100 µM (inactive); with KM12, > 100 µM (inactive). For the same molecule, the GI50 in the test on MDA-N was 39.2 µM (inactive); with SF-268, > 100 µM (inactive); in the test on COLO 205, 20.6 µM (inactive); with SR it was 39.5 µM (inactive); with DU-145 it was > 100 µM (inactive); with NCI-H522, 49.4 µM (inactive). The GI50 is 11.2 µM (inactive) in the test on K562; 37.7 µM (inactive) with CCRF-CEM; > 100 µM (inactive) in the test on SK-OV-3; > 100 µM (inactive) with NCI-H23; over 100 µM in the test on HCT-15; 84.1 µM (inactive) in the test with SF-539. Besides, the GI50 in the test with OVCAR-3 is > 100 µM (inactive).
As for `COc1ccc(CNc2nc(NCc3ccc(OC)cc3)nc(NC3CCCCC3)n2)cc1`, the GI50 was 1.34 µM (inactive) with SF-295; 2.09 µM (inactive) in the test with IGROV-1; > 100 µM (inactive) in the test with MOLT-4; 1.93 µM (inactive) in the test on NCI-H226; 1.5 µM (inactive) in the test on KM12; 0.65 µM (active) with MDA-N. Further, the GI50 is 2.24 µM (inactive) in the test on SF-268; 1.94 µM (inactive) in the test with COLO 205; 3.29 µM (inactive) in the test with SR; 2.9 µM (inactive) in the test with DU-145; 1.21 µM (inactive) in the test on NCI-H522; 5.35 µM (inactive) with K562. Also, the GI50 was 48.6 µM (inactive) in the test on A498; 2.21 µM (inactive) with CCRF-CEM; 3.87 µM (inactive) in the test with SK-OV-3; 2.13 µM with HCT-15; 3.01 µM (inactive) in the test with SF-539; 2.2 µM (inactive) with OVCAR-3.
For `COC(=O)Nc1nc2cc(Oc3ccc4nc(NC(=O)OC)[nH]c4c3)ccc2[nH]1`, the GI50 in the test on SF-295 is 1.58 µM (inactive); in the test with IGROV-1 it was 1.45 µM (inactive); in the test on SNB-75 it was 0.701 µM (active); in the test with MOLT-4, 1 µM (active); in the test on NCI-H226 it was 0.925 µM (active); in the test with KM12, 0.376 µM (active). In addition, the GI50 with MDA-N was 0.105 µM (active); with SF-268, 1.36 µM (inactive); in the test on COLO 205 it was 0.708 µM (active); with SR, 0.252 µM (active); in the test with DU-145, 0.791 µM (active); in the test with NCI-H522 it was 1.34 µM (inactive). Also, the GI50 is 0.942 µM (active) in the test with K562; 0.371 µM (active) in the test with CCRF-CEM; 1.45 µM (inactive) in the test with SK-OV-3; 1.81 µM (inactive) in the test with NCI-H23; 1.28 µM in the test on HCT-15; 0.381 µM (active) in the test on SF-539. In addition, the GI50 with OVCAR-3 is 0.149 µM (active).
